These results are taken from publication PMC6212553, “Baicalein Enhances the Oral Bioavailability and Hepatoprotective Effects of Silybin Through the Inhibition of Efflux Transporters BCRP and MRP2” (Frontiers in Pharmacology, 2018).

One data set concerns the target T1, MRP2 (Homo sapiens, UniProt Q92887).
T1 construct: host or cells: MDCK II (canine kidney) cells transfected with MRP2
In words: Bidirectional transport of CDCFDA in MDCKII-MRP2 cells. In kind it is cell-based. On the procedure: Human colon epithelial cell line (Caco-2) was purchased from American Type Culture Collection (Manassas, VA, United States) and frozen at -80°C. Wild type MDCK II, MDR1-MDCK II, BCRP-MDCK II, and MRP2-MDCK II cells were kindly supplied by the Netherlands Cancer Institute (Amsterdam, Netherlands). Transport study was carried out with Caco-2 cells, and MDCK II cells were transfected using a previously established method with slight modifications ([Yuan et al., 2017]). The Caco-2 cells were cultured at 37°C/5% CO2 in Dulbecco’s modified Eagle’s medium (DMEM) supplemented with 10% fetal bovine serum, 1% nonessential amino acids, and 1% penicillin-streptomycin. […]
Bidirectional transport assays for Caco-2 and MDCK II cells were performed by adding silybin (10 μM) in assay buffer into either the apical (AP; A-to-B) or basolateral (BL; B-to-A) chamber, and each 100 μl sample was collected at 30, 60, 90, 120, and 180 min. […] The fluorescence intensity of the sample collected from the AP or BL side was immediately detected in a 96-well black plate by the Microplate UV/VIS spectrophotometer (TECAN Infinite M200 PRO, Männedorf, Switzerland). […]
where dQ/dt (mM/s) represents the rate of permeation of the drug across the cells, C0 (mM) refers to the concentration in the donor compartment at time zero calculated from dosing solution, and A (cm^2) refers to the area of the cell monolayer. […]

For data set [1], the system named is sandwich-cultured rat hepatocytes. In words: Biliary excretion in sandwich-cultured rat hepatocytes (SCH). In kind it is in vitro ADME. On the procedure:
Sandwich-cultured rat hepatocytes (SCHs) model was established based on a previously described method with minor modifications ([Swift et al., 2010]). In brief, primary rat hepatocytes were prepared from male Sprague Dawley (SD) rats (220–270 g) using collagenase perfusion as described previously ([Liu et al., 1999]) and then were plated on 6-well plates at a density of 7.4 × 10^5 cells/2 ml/well. Approximately 24 h later, hepatocytes were overlaid with 2 ml of BD Matrigel basement membrane matrix in DMEM (0.25 mg/ml) containing 1% (v/v) insulin/transferrin/selenium culture supplement, […], 2 mM L-glutamine, and 1% penicillin-streptomycin. Hepatocytes were cultured for 4 days with daily medium replacements until the canalicular network was extensively formatted between the cells before the experiment. Evaluation of biliary excretion in SCHs was carried out according to a previously described method ([Liu et al., 1999]). […] Samples were quantified by LC-MS/MS analysis, and the transport function was normalized to the protein content of the hepatocytes. […] Later, the residues were reconstituted with 60 μl of 30% methanol in water containing 1% ascorbic acid, and an aliquot of 10 μl of final solution after centrifugation was analyzed by LC-MS/MS. […] The quantitative linear range for silybin A and B was 5 to 12500 ng/ml.

A further data set has as its target T2, MDR1 (Homo sapiens, UniProt P08183).
T2 construct: host or cells: MDCK II (canine kidney) cells transfected with MDR1
In words: Bidirectional transport of Rho123 in MDCKII-MDR1 cells. In kind it is cell-based. Conditions: dog, MDCK-MDR1, absence of inhibitor. On the procedure:
(§1) Human colon epithelial cell line (Caco-2) was purchased from American Type Culture Collection (Manassas, VA, United States) and frozen at -80°C. Wild type MDCK II, MDR1-MDCK II, BCRP-MDCK II, and MRP2-MDCK II cells were kindly supplied by the Netherlands Cancer Institute (Amsterdam, Netherlands). […] The Caco-2 cells were cultured at 37°C/5% CO2 in Dulbecco’s modified Eagle’s medium (DMEM) supplemented with 10% fetal bovine serum, 1% nonessential amino acids, and 1% penicillin-streptomycin. The Caco-2 cells were seeded onto polyester filter membranes in a 12-well Transwell® plate (Corning Costar Co., NY, United States) with 0.6 × 10^5 cells/cm^2. […]
(§2) For inhibition studies, Caco-2 or MDCK II cell monolayers in both apical and basolateral chambers were preincubated with the inhibitor for 30 min. The fluorescence intensity of the sample collected from the AP or BL side was immediately detected in a 96-well black plate by the Microplate UV/VIS spectrophotometer (TECAN Infinite M200 PRO, Männedorf, Switzerland). […]
(§3) where dQ/dt (mM/s) represents the rate of permeation of the drug across the cells, C0 (mM) refers to the concentration in the donor compartment at time zero calculated from dosing solution, and A (cm^2) refers to the area of the cell monolayer. Papp (B-A) is the Papp value measured in the B to A direction, and Papp (A-B) is the Papp value measured in the A to B direction. […]

The next data set deals with Caco-2 cells. In words: Bidirectional transport of silybin across Caco-2 cell monolayers. It is filed as in vitro ADME, Human. The note with it: Caco-2 monolayers, silybin 10 μM. On the procedure:
Human colon epithelial cell line (Caco-2) was purchased from American Type Culture Collection (Manassas, VA, United States) and frozen at -80°C. Wild type MDCK II, MDR1-MDCK II, BCRP-MDCK II, and MRP2-MDCK II cells were kindly supplied by the Netherlands Cancer Institute (Amsterdam, Netherlands). Transport study was carried out with Caco-2 cells, and MDCK II cells were transfected using a previously established method with slight modifications ([Yuan et al., 2017]). The Caco-2 cells were cultured at 37°C/5% CO2 in Dulbecco's modified Eagle's medium (DMEM) supplemented with 10% fetal bovine serum, 1% nonessential amino acids, and 1% penicillin-streptomycin. The Caco-2 cells were seeded onto polyester filter membranes in a 12-well Transwell® plate (Corning Costar Co., NY, United States) with 0.6 × 10^5 cells/cm^2. The monolayer cells were used for transport assays between 21 and 23 days. The MDCKII cells were seeded on transwell plates with a density of 2.0 × 10^5 cells/cm^2 and grown for 4-5 days to form a confluent monolayer. Bidirectional transport assays for Caco-2 and MDCK II cells were performed by adding silybin (10 μM) in assay buffer into either the apical (AP; A-to-B) or basolateral (BL; […] For inhibition studies, Caco-2 or MDCK II cell monolayers in both apical and basolateral chambers were preincubated with the inhibitor for 30 min. The fluorescence intensity of the sample collected from the AP or BL side was immediately detected in a 96-well black plate by the Microplate UV/VIS spectrophotometer (TECAN Infinite […], Männedorf, Switzerland). For liquid chromatography tandem-mass spectrometry (LC-MS/MS) analysis, the sample (100 μl) was mixed with methanol (50 μl) containing internal standard (25 ng/ml) and was stored at -80°C. The formula for calculating apparent permeability coefficient (Papp) values is as follows: (1) […] where dQ/dt (mM/s) represents the rate of permeation of the drug across the cells, C0 (mM) refers to the concentration in the donor compartment at time zero calculated from dosing solution, and A (cm^2) refers to the area of the cell monolayer. Papp (B-A) is the Papp value measured in the B to A direction, and Papp (A-B) is the Papp value measured in the A to B direction. The efflux ratio is given as ER = Papp (B to A)/Papp (A to B).

Data set [2] relates to CCl4-induced liver injury model. In words: CCl4-induced acute liver injury in rats. Also on record: Nerosis (histologic score, liver H&E) / Haemorrhage (histologic score, liver H&E) / Inflammation (histologic score, liver H&E) / Steatosis (histologic score, liver H&E): scale not given here. In kind it is in vivo, SD rats. On the procedure: Male SD rats were randomly divided into seven groups: […] (2) Group II, given blank vehicle p.o. for 7 days; (3) Group III, treatment with silybin (100 mg/kg bodyweight, p.o.) for 7 days; […] After 24 h of CCl4 treatment, all rats were sacrificed under ether anesthesia. Blood samples were collected from the abdominal aorta for biochemical estimations. The liver was immediately removed and weighed with a large portion of the liver frozen in liquid nitrogen. The pathological liver changes were examined by hematoxylin and eosin (H&E) staining, which was performed by a pathologist who was blinded to this study. The serum levels of ALT, AST, AKP, and SOD as well as the cytokines TNF- α, IL-6, and IL-1β were detected by the assay kit, according to the manufacturer’s instructions.

For data set [3] the following is noted: ref Lai et al., 2003, cited from earlier work.
The target of a further data set is T3, BCRP (Homo sapiens, UniProt Q9UNQ0).
T3 construct: host or cells: MDCK II (canine kidney) cells transfected with BCRP
T3 sequence (Q9UNQ0 1-655): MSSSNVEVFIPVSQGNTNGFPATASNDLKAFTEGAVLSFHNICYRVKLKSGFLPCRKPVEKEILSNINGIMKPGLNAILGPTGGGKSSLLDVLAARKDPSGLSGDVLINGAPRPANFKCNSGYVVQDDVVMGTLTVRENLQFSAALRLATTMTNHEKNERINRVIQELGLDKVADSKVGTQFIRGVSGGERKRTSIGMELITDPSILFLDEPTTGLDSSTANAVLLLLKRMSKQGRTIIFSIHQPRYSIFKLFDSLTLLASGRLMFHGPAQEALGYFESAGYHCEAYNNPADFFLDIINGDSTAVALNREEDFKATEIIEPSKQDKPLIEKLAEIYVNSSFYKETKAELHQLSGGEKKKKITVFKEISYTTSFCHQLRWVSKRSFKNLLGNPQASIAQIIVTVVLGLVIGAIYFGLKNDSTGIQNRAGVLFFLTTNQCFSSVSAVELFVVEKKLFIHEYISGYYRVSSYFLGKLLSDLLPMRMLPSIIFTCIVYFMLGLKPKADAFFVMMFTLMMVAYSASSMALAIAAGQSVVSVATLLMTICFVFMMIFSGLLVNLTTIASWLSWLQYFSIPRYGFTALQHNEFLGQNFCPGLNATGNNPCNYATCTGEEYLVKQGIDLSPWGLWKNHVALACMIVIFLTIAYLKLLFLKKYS
In words: Bidirectional transport of pheophorbide A in MDCKII-BCRP cells. The note with it: dog, absence of inhibitor. It is filed as cell-based. On the procedure: as §1, §2, §3

[4] abbreviates: 100 mg/kg p.o. 7 days, single agent, CCl4 on day 7.

T2 sequence (P08183 whole entry): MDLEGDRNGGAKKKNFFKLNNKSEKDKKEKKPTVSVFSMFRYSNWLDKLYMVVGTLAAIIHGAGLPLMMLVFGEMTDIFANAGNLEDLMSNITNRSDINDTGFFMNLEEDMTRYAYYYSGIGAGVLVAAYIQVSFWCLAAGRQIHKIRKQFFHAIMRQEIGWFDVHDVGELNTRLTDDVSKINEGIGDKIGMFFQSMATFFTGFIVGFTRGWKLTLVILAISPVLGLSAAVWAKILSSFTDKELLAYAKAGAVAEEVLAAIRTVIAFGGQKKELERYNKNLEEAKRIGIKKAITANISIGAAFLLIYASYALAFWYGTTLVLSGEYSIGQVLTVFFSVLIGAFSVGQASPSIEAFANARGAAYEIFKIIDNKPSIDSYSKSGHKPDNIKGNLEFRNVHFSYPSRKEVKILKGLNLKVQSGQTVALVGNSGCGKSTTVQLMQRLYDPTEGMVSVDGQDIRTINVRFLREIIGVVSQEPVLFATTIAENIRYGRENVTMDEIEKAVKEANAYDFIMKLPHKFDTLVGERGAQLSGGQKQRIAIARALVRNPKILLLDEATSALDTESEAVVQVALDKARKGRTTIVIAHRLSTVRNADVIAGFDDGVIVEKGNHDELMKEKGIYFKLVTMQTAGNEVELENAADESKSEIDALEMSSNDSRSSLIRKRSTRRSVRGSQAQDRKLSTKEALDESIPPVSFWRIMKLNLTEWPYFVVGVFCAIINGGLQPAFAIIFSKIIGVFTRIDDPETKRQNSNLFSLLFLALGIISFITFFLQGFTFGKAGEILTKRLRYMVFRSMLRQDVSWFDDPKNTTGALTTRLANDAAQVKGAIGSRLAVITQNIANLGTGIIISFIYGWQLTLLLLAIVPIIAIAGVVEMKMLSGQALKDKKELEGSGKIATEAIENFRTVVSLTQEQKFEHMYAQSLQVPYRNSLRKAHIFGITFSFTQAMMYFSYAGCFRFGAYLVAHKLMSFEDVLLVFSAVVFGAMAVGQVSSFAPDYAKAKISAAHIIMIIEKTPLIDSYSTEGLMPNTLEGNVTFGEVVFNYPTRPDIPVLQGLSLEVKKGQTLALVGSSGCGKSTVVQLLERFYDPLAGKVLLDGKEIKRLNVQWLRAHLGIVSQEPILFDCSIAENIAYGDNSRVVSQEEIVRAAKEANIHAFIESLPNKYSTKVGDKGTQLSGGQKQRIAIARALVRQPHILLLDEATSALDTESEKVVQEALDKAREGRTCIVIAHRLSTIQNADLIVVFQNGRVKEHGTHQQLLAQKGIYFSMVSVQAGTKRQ
T1 sequence (Q92887 whole entry): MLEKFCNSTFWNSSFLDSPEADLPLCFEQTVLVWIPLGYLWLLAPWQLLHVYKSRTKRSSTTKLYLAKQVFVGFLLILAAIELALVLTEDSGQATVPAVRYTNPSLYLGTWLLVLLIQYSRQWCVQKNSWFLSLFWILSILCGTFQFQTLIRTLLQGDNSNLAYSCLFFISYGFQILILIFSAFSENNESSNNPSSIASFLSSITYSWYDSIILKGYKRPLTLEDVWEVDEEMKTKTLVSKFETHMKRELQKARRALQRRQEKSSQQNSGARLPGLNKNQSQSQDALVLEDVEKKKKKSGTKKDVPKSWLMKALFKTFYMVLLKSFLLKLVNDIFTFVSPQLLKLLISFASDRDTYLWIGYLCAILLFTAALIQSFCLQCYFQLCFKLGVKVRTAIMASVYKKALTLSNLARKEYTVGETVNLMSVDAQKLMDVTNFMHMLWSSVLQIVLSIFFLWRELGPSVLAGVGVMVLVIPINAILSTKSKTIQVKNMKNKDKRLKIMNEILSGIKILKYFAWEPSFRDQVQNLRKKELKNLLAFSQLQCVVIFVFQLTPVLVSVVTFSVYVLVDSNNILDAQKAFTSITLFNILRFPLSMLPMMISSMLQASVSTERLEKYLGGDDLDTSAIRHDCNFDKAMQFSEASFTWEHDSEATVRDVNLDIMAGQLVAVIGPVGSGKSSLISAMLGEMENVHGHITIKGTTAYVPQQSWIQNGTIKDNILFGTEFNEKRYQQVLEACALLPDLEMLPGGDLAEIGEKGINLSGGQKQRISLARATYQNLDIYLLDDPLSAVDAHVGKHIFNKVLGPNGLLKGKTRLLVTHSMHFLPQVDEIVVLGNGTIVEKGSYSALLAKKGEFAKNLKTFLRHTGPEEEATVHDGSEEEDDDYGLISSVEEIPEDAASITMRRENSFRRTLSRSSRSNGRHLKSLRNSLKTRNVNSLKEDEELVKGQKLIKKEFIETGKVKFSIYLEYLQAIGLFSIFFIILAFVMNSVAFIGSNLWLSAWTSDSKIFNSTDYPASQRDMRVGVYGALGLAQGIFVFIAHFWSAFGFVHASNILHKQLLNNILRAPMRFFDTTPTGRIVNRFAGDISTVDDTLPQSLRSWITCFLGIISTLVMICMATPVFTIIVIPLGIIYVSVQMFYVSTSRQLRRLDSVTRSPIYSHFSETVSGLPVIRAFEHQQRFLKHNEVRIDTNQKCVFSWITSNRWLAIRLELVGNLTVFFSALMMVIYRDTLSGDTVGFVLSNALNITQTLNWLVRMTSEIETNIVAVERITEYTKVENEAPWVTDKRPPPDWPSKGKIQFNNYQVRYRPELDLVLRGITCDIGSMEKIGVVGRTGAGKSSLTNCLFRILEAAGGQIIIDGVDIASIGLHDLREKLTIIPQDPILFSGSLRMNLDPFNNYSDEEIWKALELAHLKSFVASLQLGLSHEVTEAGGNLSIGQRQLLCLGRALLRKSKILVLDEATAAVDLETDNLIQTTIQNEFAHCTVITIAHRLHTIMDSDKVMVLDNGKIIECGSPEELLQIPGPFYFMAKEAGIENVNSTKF

For “5(6)-Carboxy-2′,7′-dichlorofluorescein diacetate [CDCFDA]”, the “efflux ratio of CDCFDA” value on MRP2 was determined as 3.82 ± 0.51.

Take `CN(C)C(=O)CCSC(SCCC(=O)O)c1cccc(/C=C/c2ccc3ccc(Cl)cc3n2)c1` (centres unmarked) [MK571]: in data set [1] (MK571 50 μM, positive control), the “effect on biliary excretion of silybin and its conjugates” value is “significantly inhibited”.

`COC(=O)c1ccccc1-c1c2ccc(=N)cc-2oc2cc(N)ccc12` [Rho123, Rhodamine 123]: the efflux ratio at 180 min on MDR1 was 3.68 ± 0.44.

Regarding `O=c1cc(-c2ccccc2)oc2cc(O)c(O)c(O)c12` [baicalein, 5,6,7-trihydroxyflavone], the “lowest effective dosage inhibiting efflux transport of silybin” value with Caco-2 cells amounted to 0.5 µM. In data set [1] (baicalein 25 μM), the “reduction of the biliary excretion of silybin conjugates” value is given as roughly 90%. In data set [2] (setting [4]), the “Haemorrhage (histologic score, liver H&E)” value was 2.2±0.4; the “Inflammation (histologic score, liver H&E)” value turned out to be 2.2±0.8; the “Nerosis (histologic score, liver H&E)” value is reported as 3.0±0.6; the “Steatosis (histologic score, liver H&E)” value was found to be 2.3±0.8. Further, the “protection of liver injury by baicalein itself” value in data set [2] (CCl4-induced acute liver injury model) is listed as “failed to show significant benefits”. In addition, in data set [3] (after oral administration or dosing in the Caco-2 cell model, Li et al., 2012), the “glucuronides/sulfates of baicalein in the plasma or cell” value is listed as 75.7%. Also, the absolute absorption in data set [3] (passive diffusion) was 40%.

On to `O=C(O)[C@H]1O[C@@H](Oc2cc3oc(-c4ccccc4)cc(=O)c3c(O)c2O)[C@H](O)[C@@H](O)[C@@H]1O` [baicalin], for which, in data set [3] (after oral administration), the “relative absorption compared with baicalein” value is on record as 65%.

Regarding `C=Cc1c(C)c2cc3nc(c4c5[nH]c(cc6nc(cc1[nH]2)C(C)=C6CC)c(C)c5C(=O)[C@@H]4C(=O)OC)[C@@H](CCC(=O)O)[C@@H]3C` [pheophorbide A], at BCRP, the efflux ratio at 180 min came out at 2.82 ± 0.13.
